pEC50, pIC50, pKd: −log10 of the molar value.
How the values were obtained:
[1] = biological target: T1, RARβ (Homo sapiens, UniProt P10826); test: co-transfection assay, agonist activity on RARβ; type: cell-based; set-up: expressed in transfected cells; host or cells: CV-1 cells (African green monkey kidney); conditions: CV-1 cells; read-out: EC50 agonist potency, RARβ
T1 sequence (P10826 1-448 isoform P10826-2): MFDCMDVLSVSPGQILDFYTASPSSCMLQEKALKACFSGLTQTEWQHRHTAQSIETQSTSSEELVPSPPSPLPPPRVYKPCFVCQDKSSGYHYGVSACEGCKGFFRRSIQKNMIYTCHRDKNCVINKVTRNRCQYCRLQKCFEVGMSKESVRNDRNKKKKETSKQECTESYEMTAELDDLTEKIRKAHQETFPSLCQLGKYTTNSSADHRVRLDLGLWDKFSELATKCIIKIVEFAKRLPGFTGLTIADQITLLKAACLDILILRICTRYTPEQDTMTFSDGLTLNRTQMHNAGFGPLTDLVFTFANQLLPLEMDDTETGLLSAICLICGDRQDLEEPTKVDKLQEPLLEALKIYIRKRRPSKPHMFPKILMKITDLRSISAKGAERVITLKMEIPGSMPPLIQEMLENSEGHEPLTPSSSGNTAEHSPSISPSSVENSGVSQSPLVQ
Source text: (§1) This assay is described in further detail in U.S. Pat. Nos. 4,981,784 and 5,071,773, the disclosures of which are incorporated herein by reference.
(§2) In the co-transfection assay, a cloned cDNA for an IR (e.g., human RARα:, RARβ, RXRγ) under the control of a constitutive promoter (e.g., the SV 40 promoter) is introduced by transfection (a procedure to induce cells to take up foreign genes) into a background cell substantially devoid of endogenous IRs. This introduced gene directs the recipient cells to make the IR protein of interest. A second gene is also introduced (co-transfected) into the same cells in conjunction with the IR gene. This second gene, comprising the cDNA for a reporter protein, such as firefly luciferase (LUC), is controlled by an appropriate hormone responsive promoter containing a hormone response element (HRE). This reporter plasmid functions as a reporter for the transcription-modulating activity of the target IR. Thus, the reporter acts as a surrogate for the products (mRNA then protein) normally expressed by a gene under control of the target receptor and its native hormone.
(§3) The co-transfection assay can detect small molecule agonists or antagonists of target IRs. Exposing the transfected cells to an agonist ligand compound increases reporter activity in the transfected cells. This activity can be conveniently measured, e.g., by increasing luciferase production, which reflects compound-dependent, IR-mediated increases in reporter transcription. To detect antagonists, the co-transfection assay is carried out in the presence of a constant concentration of an agonist to the target IR (e.g., all-trans retinoic acid for RARα) known to induce a defined reporter signal. Increasing concentrations of a suspected antagonist will decrease the reporter signal (e.g., luciferase production). The co-transfection assay is therefore useful to detect both agonists and antagonists of specific IRs. Furthermore, it determines not only whether a compound interacts with a particular IR, but whether this interaction mimics (agonizes) or blocks (antagonizes) the effects of the native regulatory molecules on target gene expression, as well as the specificity and strength of this interaction.
CV-1 cells (African green monkey kidney fibroblasts) were cultured in the presence of Dulbecco's Modified Eagle Medium (DMEM) supplemented with 10% charcoal resin-stripped fetal bovine serum then transferred to 96-well microtiter plates one day prior to transfection. […]

[2] = biological target: T2, RARα (Homo sapiens, UniProt P10276); test: co-transfection assay, antagonist activity on RARα; type: cell-based; set-up: expressed in transfected cells; host or cells: CV-1 cells (African green monkey kidney); conditions: CV-1 cells, in presence of known RAR agonist TTNPB; for pIC50: read-out: IC50 antagonist potency, RARα
T2 sequence (P10276 1-462): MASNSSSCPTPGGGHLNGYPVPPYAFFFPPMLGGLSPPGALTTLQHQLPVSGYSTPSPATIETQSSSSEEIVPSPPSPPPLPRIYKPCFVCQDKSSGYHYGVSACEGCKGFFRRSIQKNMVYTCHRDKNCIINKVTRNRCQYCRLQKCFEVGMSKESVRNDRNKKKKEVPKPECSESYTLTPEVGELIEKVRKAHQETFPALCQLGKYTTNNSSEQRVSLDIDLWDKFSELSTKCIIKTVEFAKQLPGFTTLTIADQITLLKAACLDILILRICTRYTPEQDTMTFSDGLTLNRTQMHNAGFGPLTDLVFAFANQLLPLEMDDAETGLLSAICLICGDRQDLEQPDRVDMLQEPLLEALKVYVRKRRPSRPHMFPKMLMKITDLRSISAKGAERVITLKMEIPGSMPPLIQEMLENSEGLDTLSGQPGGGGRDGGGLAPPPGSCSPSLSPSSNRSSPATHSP
Source text: as §1, §2, §3
CV-1 cells (African green monkey kidney fibroblasts) were cultured in the presence of Dulbecco's Modified Eagle Medium (DMEM) supplemented with 10% charcoal resin-stripped fetal bovine serum then transferred to 96-well microtiter plates one day prior to transfection.
To determine RAR and/or RXR agonist activity of the compounds of the present invention, the CV-1 cells were transiently transfected by calcium phosphate coprecipitation according to the procedure of Berger et al., 41 J. Steroid Biochem. Mol. Biol., 733 (1992) with the following receptor expressing plasmids: pRShRARα: Giguere et al., 330 Nature, 624 (1987); pRShRARβ and pRShRARγ, Ishikawa et al., 4 Mol. Endocrin., 837 (1990); pRShRXRα, Mangelsdorf et al., 345 Nature, 224 (1990); and pRSmRXRβ and pRSmRXRγ, Mangelsdorf et al., 6 Genes & Devel., 329 (1992), the disclosures of which are herein incorporated by reference. Each of these receptor expressing plasmids was co-transfected at a concentration of 5 ng/well, along with a basal reporter plasmid at 100 ng/well, the internal control plasmid pRS-β-Gal at 50 ng/well and filler DNA, pGEM at 45 ng/well.
The basal reporter plasmid D-MTV-LUC (Hollenberg and Evans, 55 Cell, 899 (1988), the disclosure of which is herein incorporated by reference) containing two copies of the TRE-palindromic response element described in Umesono et al., 336 Nature, 262 (1988), the disclosure of which is herein incorporated by reference, was used in transfections for the RARs, and the reporter plasmid CRBPIIFKLUC, which contains an RXRE (retinoid X receptor response element, as described in Mangelsdorf et al., 66 Cell, 555 (1991), the disclosure of which is herein incorporated by reference), was used in transfections for the RXRs.

[3] = biological target: T2, RARα; test: RAR binding, RARα; conditions: Kd from IC50 by Cheng-Prussof equation
Method: Non-specific binding was defined as that binding remaining in the presence of 500 nM of the appropriate unlabelled compound. At the end of the incubation period, bound from free ligand were separated. The amount of bound tritiated retinoids was determined by liquid scintillation counting of an aliquot (700 μL) of the supernatant fluid or the hydroxylapatite pellet.
After correcting for non-specific binding, IC50 values were determined. […] The IC50 value was determined graphically from a log-logit plot of the data. The Kd values were determined by application of the Cheng-Prussof equation to the IC50 values, the labeled ligand concentration and the Kd of the labeled ligand.

SMILES	pEC50 [1]	efficacy of antagonist, % of maximal inhibition, RARα (in parentheses after IC50) [2] [%]	pIC50 [2]	pKd [3]
CCCCOc1c(C(C)(C)C)cc(/C(C)=C/C=C/C(C)=C/C(=O)O)cc1C(C)(C)C [Compound 7, 2E, 4E, 6E-[7-(3,5-Di-t-butyl-4-n-butoxyphenyl)-3-methyl]-octa-2,4,6-trienoic acid]	< 5.00	90	8.40	8.52
CCCOc1c(C(C)(C)C)cc(/C(C)=C/C=C/C(C)=C/C(=O)O)cc1C(C)(C)C [Compound 8, 2E, 4E, 6E-[7-(3,5-Di-t-butyl-4-n-propoxyphenyl)-3-methyl]-octa-2,4,6-trienoic acid]	< 5.00	90	8.70	8.70
CCCCCOc1c(C(C)(C)C)cc(/C(C)=C/C=C/C(C)=C/C(=O)O)cc1C(C)(C)C [Compound 9, 2E, 4E, 6E-[7-(3,5-Di-t-butyl-4-n-pentoxyphenyl)-3-methyl]-octa-2,4,6-trienoic acid]	< 5.00	91	8.30	8.05
C=C(c1ccccc1)c1cc(/C(C)=C/C=C/C(C)=C/C(=O)O)cc(C(C)(C)C)c1 [Compound 17, (2E,4E,6E)-7-[3-t-butyl-5-(1-phenyl-vinyl)-phenyl]-3-methyl-octa-2,4,6-trienoic acid]	< 5.00	98	8.70	8.70

Reference: patent US5998654A, “Retinoic acid receptor antagonist compounds and methods” (Ligand Pharmaceuticals Incorporated, priority 1997, dated 1999)
